Measured values reported in patent US20070275911A1, “Targeted Drug-Formaldehyde Conjugates and Methods of Making and Using the Same” (priority 2003, published 2007).

Tests used:
[1] = Hydrolysis and stability of DOX-TEG-TAM; format: physicochemical
Method: Results: Hydrolysis and stability. A standard solution of DOX-TEG-TAM (11c) in dimethylsulfoxide (DMSO) containing 1% v/v acetic acid (AcOH) was diluted 1:100 in two different buffers: lysis buffer (pH 7.4, 10 mM Tris, 1.5 mM EDTA, 10 mM Na2MoO4) used for binding experiments or TE buffer (pH 7.6, 10 MM Tris, 1 mM EDTA). Samples incubated at 37° C. and 4° C. were monitored by HPLC to detect the loss of intact targeted drug and the formation of doxorubicin. The hydrolysis data was fit using first-order reaction kinetics to provide first-order rate constants; the hydrolysis half-life was then calculated using t1/2=ln2/k.
The DOX-TEG-TAM was diluted 1:100 in either pH 7.6 TE buffer (10 mM tris, 1 mM EDTA buffer) or pH 7.4 lysis buffer (10% v/v glycerol, 10 mM Tris, 1.5 mM EDTA, 10 mM Na2MoO4). A sample of each buffer was kept at 37° C. and 4° C. and monitored by HPLC using Method #2 (described above) to track the loss of DOX-TEG-TAM and the subsequent formation of doxorubicin. The area-under-the-curve (AUC) was used to calculate the percentage of intact material versus time. The hydrolysis data were fit to first-order kinetics using Regression (Blackwell Scientific Publishing, London) software. The reaction rate constants were 0.012±0.0007 min^−1 (pH 7.6) and 0.0092±0.0003 min^−1 (pH 7.4) at 37° C.; 0.0058±0.0005 h^−1 (pH 7.6) and 0.0038±0.0003 h^−1 ([…]) at 4° C. The half-life for hydrolysis was then calculated from the rate constants using t1/2=ln2/k.

[2] = target: T1, AEBS (Homo sapiens, UniProt Q15125+Q9UBM7); assay: AEBS binding, competition with 3H-tamoxifen in MCF-7 cell lysate; details: 50 nM competitor
T1 construct: MCF-7 cells were utilized as the AEBS source; endogenous in cells; host or cells: MCF-7 cells

[3] = target: T2, estrogen receptor (Homo sapiens, UniProt P03372); assay: Estrogen receptor competitive binding assay (3H-E2, MCF-7 cell lysate)
T2 construct: endogenous in cells; host or cells: MCF-7 cells (ATCC); 225,000 g supernatant of sonicated lysate

[4] = test system: PC3/AR and PC3/neo cells; details: 3 h treatment / over time
Method: The fluorescence of doxorubicin can be monitored in order to determine the rate of uptake and intracellular distribution of the anthraquinone fluorophore.
This cell suspension was dispensed in 2 mL aliquots into 6-well tissue culture plates. Plates were then incubated for 36 h at 37° C. in a humidified atmosphere of 5% CO2 and 95% air. The medium was replaced with 1 mL of phenol red-free RPMI 1640 growth medium supplemented with 10% dextran-coated charcoal stripped FBS prior to addition of the test compound. The appropriate compound was dissolved in DMSO and the concentration was adjusted to 50-200 μM by measuring the solution absorbance at 480 nm. Addition of 10 μL of the appropriate doxorubicin or prodrug solution was followed by incubation at 37° C. as indicated. The drug solution in individual wells was removed at the appropriate time and the cells were washed with 1 mL of the phenol red-free growth medium. The washed cells were then supplemented with 1 mL of phenol-red free growth medium for imaging.

T1 sequence (Q15125 2-230): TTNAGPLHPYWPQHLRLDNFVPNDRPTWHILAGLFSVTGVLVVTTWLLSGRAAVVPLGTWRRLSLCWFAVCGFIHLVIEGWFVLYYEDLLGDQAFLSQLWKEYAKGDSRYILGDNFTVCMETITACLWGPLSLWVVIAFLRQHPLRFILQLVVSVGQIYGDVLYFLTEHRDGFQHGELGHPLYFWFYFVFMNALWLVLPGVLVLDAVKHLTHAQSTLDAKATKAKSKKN
T1 sequence (Q9UBM7 whole entry): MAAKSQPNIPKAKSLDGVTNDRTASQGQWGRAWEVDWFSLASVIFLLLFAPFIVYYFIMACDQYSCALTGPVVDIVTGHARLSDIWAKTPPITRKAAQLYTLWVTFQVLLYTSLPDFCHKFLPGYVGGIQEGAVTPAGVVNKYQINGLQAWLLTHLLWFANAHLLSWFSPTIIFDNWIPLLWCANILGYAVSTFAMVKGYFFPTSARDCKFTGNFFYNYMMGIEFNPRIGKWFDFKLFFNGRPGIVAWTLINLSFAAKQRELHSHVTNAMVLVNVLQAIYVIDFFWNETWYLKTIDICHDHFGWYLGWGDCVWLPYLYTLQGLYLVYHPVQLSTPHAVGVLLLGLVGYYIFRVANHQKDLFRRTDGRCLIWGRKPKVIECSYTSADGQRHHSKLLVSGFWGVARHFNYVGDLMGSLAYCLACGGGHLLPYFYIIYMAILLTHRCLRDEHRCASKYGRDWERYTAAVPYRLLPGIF
T2 sequence (P03372 whole entry): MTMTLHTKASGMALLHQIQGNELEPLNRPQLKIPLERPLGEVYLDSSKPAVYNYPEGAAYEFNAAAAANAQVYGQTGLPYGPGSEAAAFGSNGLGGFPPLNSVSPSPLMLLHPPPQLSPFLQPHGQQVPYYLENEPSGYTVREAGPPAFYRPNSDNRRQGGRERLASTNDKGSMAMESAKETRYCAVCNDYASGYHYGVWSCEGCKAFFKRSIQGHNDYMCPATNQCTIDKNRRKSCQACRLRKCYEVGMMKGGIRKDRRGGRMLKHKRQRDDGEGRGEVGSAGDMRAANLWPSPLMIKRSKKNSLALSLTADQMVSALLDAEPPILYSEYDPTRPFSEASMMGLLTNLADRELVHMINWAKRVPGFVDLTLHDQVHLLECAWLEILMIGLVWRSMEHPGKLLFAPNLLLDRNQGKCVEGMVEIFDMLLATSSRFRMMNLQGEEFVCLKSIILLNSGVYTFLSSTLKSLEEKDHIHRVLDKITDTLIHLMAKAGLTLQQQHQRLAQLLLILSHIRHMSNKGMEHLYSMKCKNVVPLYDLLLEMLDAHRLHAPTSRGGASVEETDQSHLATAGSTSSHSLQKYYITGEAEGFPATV

Row | Structure (SMILES) | reaction rate constant ([1]; pH 7.4, 37° C.) | reaction rate constant ([1]; pH 7.5, 4° C.) | reaction rate constant ([1]; pH 7.6, 4° C.) | reaction rate constant ([1]; pH 7.6, 37° C.) | AEBS binding affinity relative to the targeting group ([2]; 0.05 nM 3H-tamoxifen) | AEBS binding affinity relative to the targeting group ([2]; 0.5 nM 3H-tamoxifen) | AEBS binding affinity relative to the targeting group ([2]; 5 nM 3H-tamoxifen) | estrogen receptor binding affinity retained relative to targeting group alone [3] | RBA^OHT ([3]; relative to E/Z-4-OHT = 100) | intracellular distribution of fluorescence over time [4]
1 | CC/C(=C(/c1ccc(O)cc1)c1ccc(OCCN(C)CCOCCOCCO/N=C/c2ccc(O)c(C(=O)NCN[C@H]3C[C@H](O[C@H]4C[C@](O)(C(=O)CO)Cc5c(O)c6c(c(O)c54)C(=O)c4c(OC)cccc4C6=O)O[C@@H](C)[C@H]3O)c2)cc1)c1ccccc1 [11c, E/Z-N-(2-Hydroxy-5-{[2-(2-{2-[(2-{4-[1-(4-hydroxy-phenyl)-2-phenyl-but-1-enyl]-phenoxy}-ethyl)-methyl-amino]-ethoxy}-ethoxy)-ethoxyimino]-methyl}-benzamide)-doxorubicin] | 0.0092 ± 0.0003 min⁻¹ | 6.33e-05 ± 5e-06 min⁻¹ | 9.67e-05 ± 8.3e-06 min⁻¹ | 0.012 ± 0.0007 min⁻¹ | 70% | 72% | 48% | 2.5% | 2.5 | –
2 | COc1cccc2c1C(=O)c1c(O)c3c(c(O)c1C2=O)C[C@@](O)(C(=O)CO)C[C@@H]3O[C@H]1C[C@H](NCNC(=O)c2ccccc2O)[C@H](O)[C@H](C)O1 [doxsaliform, N-(2-Hydroxybenzamido-methyl)-doxorubicin] | – | – | – | – | – | – | – | – | – | exclusive nuclear accumulation of fluorescence
